{
  "source": "ChEMBL document CHEMBL1151646",
  "about": "“Methyl -Orcinolcarboxylate and Depsides from Parmelia furfuracea” (1985)",
  "format_in_all_cases": "functional",
  "conditions_in_all_cases": "read-out: IZ",
  "key": {"Penicillium digitatum [1]": {"test_system": "Penicillium digitatum", "assay": "Antimicrobial activity against Penicillium digitatum at 40 ug"}, "Saccharomyces cerevisiae [2]": {"test_system": "Saccharomyces cerevisiae", "assay": "Antimicrobial activity against Saccharomyces cerevisiae at 400 ug"}, "Bacillus subtilis [3]": {"test_system": "Bacillus subtilis", "assay": "Antimicrobial activity against Bacillus subtilis ATCC 6633 at 400 ug"}, "Escherichia coli [4]": {"test_system": "Escherichia coli", "assay": "Antimicrobial activity against Escherichia coli B ATCC 11303 at 400 ug"}, "Bacillus subtilis [5]": {"test_system": "Bacillus subtilis", "assay": "Antimicrobial activity against Bacillus subtilis ATCC 6633 at 0.6 ug"}, "Escherichia coli [6]": {"test_system": "Escherichia coli", "assay": "Antimicrobial activity against Escherichia coli B ATCC 11303 at 6 ug"}, "Penicillium digitatum [7]": {"test_system": "Penicillium digitatum", "assay": "Antimicrobial activity against Penicillium digitatum at 24 ug"}, "Saccharomyces cerevisiae [8]": {"test_system": "Saccharomyces cerevisiae", "assay": "Antimicrobial activity against Saccharomyces cerevisiae at 24 ug"}},
  "note": "Structures can show the parent of a compound that is named as a salt.",
  "data": [
    {"smiles": "COC(=O)c1c(C)cc(O)c(C)c1O", "note": "[ATRARIC ACID]", "values": [
      {"measurement": "zone of inhibition at 40 µg/disc", "setting": "Penicillium digitatum [1]", "result": 29, "unit": "mm"},
      {"measurement": "zone of inhibition at 400 µg/disc", "setting": "Saccharomyces cerevisiae [2]", "result": 18, "unit": "mm"},
      {"measurement": "zone of inhibition at 400 µg/disc", "setting": "Bacillus subtilis [3]", "result": 17, "unit": "mm"},
      {"measurement": "zone of inhibition at 400 µg/disc", "setting": "Escherichia coli [4]", "result": 15, "unit": "mm"}
    ]},
    {"smiles": "CN[C@@H]1[C@H](O[C@H]2[C@H](O[C@H]3[C@H](O)[C@@H](O)[C@H](N=C(N)N)[C@@H](O)[C@@H]3N=C(N)N)O[C@@H](C)[C@]2(O)C=O)O[C@@H](CO)[C@H](O)[C@H]1O", "note": "[STREPTOMYCIN SULFATE]", "values": [
      {"measurement": "zone of inhibition at 0.6 µg/disc", "setting": "Bacillus subtilis [5]", "result": 16, "unit": "mm"},
      {"measurement": "zone of inhibition at 6 µg/disc", "setting": "Escherichia coli [6]", "result": 17, "unit": "mm"}
    ]},
    {"smiles": "CCCCC[C@@H](O)[C@H]1C(=O)O[C@H](C)[C@@H](O)/C=C/C=C/C=C/C=C/C=C(\\C)[C@@H](O)C[C@H](O)C[C@H](O)C[C@H](O)C[C@H](O)C[C@H](O)C[C@@H]1O", "note": "[FILIPIN]", "values": [
      {"measurement": "zone of inhibition at 24 µg/disc", "setting": "Penicillium digitatum [7]", "result": 29, "unit": "mm"},
      {"measurement": "zone of inhibition at 24 µg/disc", "setting": "Saccharomyces cerevisiae [8]", "result": 21, "unit": "mm"}
    ]}
  ]
}
